Measured values: US11338006B2, “Composition and method for promoting digestive health” (Vidy Herbs, Inc., priority 2018, dated 2022)

Columns and labels:
[1] = tested on: male Sprague Dawley rats; assay: gastrointestinal transit (GIT); assay type: in vivo; details: single dose (10 mg/kg), p<0.001
Procedure: (§1) A composition of asafoetida and milk thistle extract in a ratio of 1:3 was evaluated for effects on gastric emptying and gastrointestinal transit is Sprague-Dawley rats. Twenty-four male Sprague Dawley (SD) rats (190-200 g) were divided into four groups, each group consisted of six animals with less than 20% mean body weight range. Group I served as control group, Group II referenced standard Domiperidone, Groups III and IV were administered the composition. During experimentation, animals were housed under standard husbandry conditions at a temperature of 22±3° C., relative humidity (30-70%) and a light:dark cycle of 12:12 h. […]
All treatments were given for seven days daily in the morning except reference standard and on day 8th after fasted for 16 h all groups were administered with respective doses of the composition or standard drug Domperidone. Gastric emptying was measured by the use of phenol red method as described previously (Kawachi et al. 2011). […] The amount of phenol red in the supernatant was determined based on the absorbance at 570 nm measured using a microplate reader (Multiskan EX, Thermo Scientific). […] Gastric emptying was calculated using the formula: (1−amount of phenol red in the test sample/amount of phenol red in the standard sample)×100. […]
The composition in beadlet form was evaluated for efficacy in alleviating the delayed gastric emptying using an animal model. […]

[2] = body weight in the gastric emptying study; assay type: in vivo, Sprague Dawley rats; details: 10 mg/kg orally
Procedure: A composition of asafoetida and milk thistle extract in a ratio of 1:3 was evaluated for effects on gastric emptying and gastrointestinal transit is Sprague-Dawley rats. Twenty-four male Sprague Dawley (SD) rats (190-200 g) were divided into four groups, each group consisted of six animals with less than 20% mean body weight range. Group I served as control group, Group II referenced standard Domiperidone, Groups III and IV were administered the composition. During experimentation, animals were housed under standard husbandry conditions at a temperature of 22±3° C., relative humidity (30-70%) and a light:dark cycle of 12:12 h. Animals were allowed free access to pellet feed and UV purified water.
Body weights of each animal group were measured at initiation of experiment, on day 7, and fasting on day 8.

[3] = tested on: male Sprague Dawley rats; assay: gastric emptying, phenol red method; assay type: in vivo; details: 10 mg/kg orally, 20 minutes after phenol red meal; control 64.94%
Procedure: as §1
All treatments were given for seven days daily in the morning except reference standard and on day 8th after fasted for 16 h all groups were administered with respective doses of the composition or standard drug Domperidone. Gastric emptying was measured by the use of phenol red method as described previously (Kawachi et al. 2011). […] The amount of phenol red in the supernatant was determined based on the absorbance at 570 nm measured using a microplate reader (Multiskan EX, Thermo Scientific). […] Gastric emptying was calculated using the formula: (1−amount of phenol red in the test sample/amount of phenol red in the standard sample)×100.
The percentage gastric emptying was assessed after 20 minutes of phenol red meal administration in rats. […]

O=c1[nH]c2ccccc2n1CCCN1CCC(n2c(=O)[nH]c3cc(Cl)ccc32)CC1 [Domperidone]
GIT compared to control [1]: significant increase | Body weight ([2]; Day 7): 228.69 ± 12.07 g | Body weight ([2]; Fasting (Day 8)): 211.9 ± 11.72 g | Body weight ([2]; Initial): 209.68 ± 9.71 g | percentage gastric emptying [3]: 78.86%
